The record followed here is patent US10023570B2 (Array BioPharma, Inc., priority 2015, dated 2018).

As a reminder, the IC50 is the point on the concentration scale where inhibition reaches its midpoint.

The structures appear in SMILES notation.

The target of this assay is human KDR protein in HEK-293 cells (Homo sapiens (Human), UniProt P35968). The assay is described as follows: KDR Cell Assay (phospho-KDR in HEK-293 cells expressing inducible KDR). Format: cell-based. The essentials: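 HEK-293 cells with inducible human KDR were treated with compound for 1 h in DMEM (0.25% DMSO final), then lysed. Phospho-KDR was quantified by Meso Scale immunoassay, expressed as percent of control, and IC50 taken where a 4-parameter logistic fit crossed 50 POC.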

Where [1] appears, read: pKDR Cell HEK 10% FBS IC50, HEK-293 cells expressing inducible KDR, VEGF stimulated, 10% FBS.

Sequence of human KDR protein in HEK-293 cells (P35968 20-1356): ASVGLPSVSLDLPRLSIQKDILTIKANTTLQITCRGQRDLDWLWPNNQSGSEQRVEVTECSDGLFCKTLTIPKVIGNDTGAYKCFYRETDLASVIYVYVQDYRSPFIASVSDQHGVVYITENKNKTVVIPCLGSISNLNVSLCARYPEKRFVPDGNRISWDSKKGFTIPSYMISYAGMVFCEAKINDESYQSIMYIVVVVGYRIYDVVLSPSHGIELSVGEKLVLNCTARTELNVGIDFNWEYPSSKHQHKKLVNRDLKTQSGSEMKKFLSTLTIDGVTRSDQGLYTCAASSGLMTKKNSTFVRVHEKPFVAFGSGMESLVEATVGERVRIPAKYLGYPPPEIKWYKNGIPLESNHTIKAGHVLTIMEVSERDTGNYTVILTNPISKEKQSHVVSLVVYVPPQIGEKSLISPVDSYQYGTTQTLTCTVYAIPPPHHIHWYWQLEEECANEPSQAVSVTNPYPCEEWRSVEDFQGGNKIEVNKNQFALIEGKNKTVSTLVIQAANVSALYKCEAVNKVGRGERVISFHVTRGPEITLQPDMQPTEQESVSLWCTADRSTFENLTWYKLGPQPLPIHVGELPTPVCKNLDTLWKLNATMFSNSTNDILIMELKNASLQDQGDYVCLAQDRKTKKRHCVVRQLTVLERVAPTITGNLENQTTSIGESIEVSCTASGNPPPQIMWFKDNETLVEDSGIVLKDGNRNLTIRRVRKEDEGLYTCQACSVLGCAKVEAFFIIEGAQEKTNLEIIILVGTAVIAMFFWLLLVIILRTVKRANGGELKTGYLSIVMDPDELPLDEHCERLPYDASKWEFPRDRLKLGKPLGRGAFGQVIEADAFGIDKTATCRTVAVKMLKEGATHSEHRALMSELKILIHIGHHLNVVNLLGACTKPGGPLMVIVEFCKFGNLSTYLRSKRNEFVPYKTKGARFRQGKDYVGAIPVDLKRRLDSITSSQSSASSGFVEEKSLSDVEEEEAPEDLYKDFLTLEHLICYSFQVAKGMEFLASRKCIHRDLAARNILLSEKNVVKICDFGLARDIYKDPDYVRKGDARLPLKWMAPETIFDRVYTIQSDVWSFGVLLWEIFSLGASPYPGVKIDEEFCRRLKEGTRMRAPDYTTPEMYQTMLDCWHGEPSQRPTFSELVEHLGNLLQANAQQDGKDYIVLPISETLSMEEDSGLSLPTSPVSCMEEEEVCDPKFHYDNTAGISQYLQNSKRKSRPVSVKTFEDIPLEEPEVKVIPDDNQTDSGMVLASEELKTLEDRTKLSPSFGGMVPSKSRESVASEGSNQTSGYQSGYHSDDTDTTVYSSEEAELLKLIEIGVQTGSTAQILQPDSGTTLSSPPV

Turning to `Cn1cc(-c2cc(-c3ccc(N4CCN(C(=O)N5CCC(F)(F)CC5)CC4)nc3)c3c(C#N)cnn3c2)cn1` [Example 115, 4-(6-(4-(4,4-difluoropiperidine-1-carbonyl)piperazin-1-yl)pyridin-3-yl)-6-(1-methyl-1H-pyrazol-4-yl)pyrazolo[1,5-a]pyridine-3-carbonitrile], under setting [1], the IC50 worked out at 3180 nM.
Still for that read-out and setting: with `Cn1cc(-c2cc(-c3ccc(N4CCN(C(=O)N5CCCC(F)C5)CC4)nc3)c3c(C#N)cnn3c2)cn1` (stereo not drawn) [Example 116, 4-(6-(4-(3-fluoropiperidine-1-carbonyl)piperazin-1-yl)pyridin-3-yl)-6-(1-methyl-1H-pyrazol-4-yl)pyrazolo[1,5-a]pyridine-3-carbonitrile] the figure was 2270 nM; with `Cn1cc(-c2cc(-c3ccc(N4CCN(C(=O)N5CCC6(CC6)C5)CC4)nc3)c3c(C#N)cnn3c2)cn1` [Example 117, 4-(6-(4-(5-azaspiro[2.4]heptane-5-carbonyl)piperazin-1-yl)pyridin-3-yl)-6-(1-methyl-1H-pyrazol-4-yl)pyrazolo[1,5-a]pyridine-3-carbonitrile], 354 nM; with `Cn1cc(-c2cc(-c3ccc(N4CCN(C(=O)N5CCC(C)(C)C5)CC4)nc3)c3c(C#N)cnn3c2)cn1` [Example 118, 4-(6-(4-(3,3-dimethylpyrrolidine-1-carbonyl)piperazin-1-yl)pyridin-3-yl)-6-(1-methyl-1H-pyrazol-4-yl)pyrazolo[1,5-a]pyridine-3-carbonitrile], 606 nM.
Under setting [1], `Cn1cc(-c2cc(-c3ccc(N4CCN(C(=O)N5CCOCC5)CC4)nc3)c3c(C#N)cnn3c2)cn1` [Example 119, 6-(1-methyl-1H-pyrazol-4-yl)-4-(6-(4-(morpholine-4-carbonyl)piperazin-1-yl)pyridin-3-yl)pyrazolo[1,5-a]pyridine-3-carbonitrile] registered an IC50 of 2270 nM.
Compound `CN1CCN(C(=O)N2CCN(c3ccc(-c4cc(-c5cnn(C)c5)cn5ncc(C#N)c45)cn3)CC2)CC1` [Example 120, 6-(1-methyl-1H-pyrazol-4-yl)-4-(6-(4-(4-methylpiperazine-1-carbonyl)piperazin-1-yl)pyridin-3-yl)pyrazolo[1,5-a]pyridine-3-carbonitrile] registered an IC50 under setting [1] of 2240 nM.
`Cn1cc(-c2cc(-c3ccc(N4CCN(C(=O)NC5CCOCC5)CC4)nc3)c3c(C#N)cnn3c2)cn1` [Example 121, 4-(5-(3-cyano-6-(1-methyl-1H-pyrazol-4-yl)pyrazolo[1,5-a]pyridin-4-yl)pyridin-2-yl)-N-(tetrahydro-2H-pyran-4-yl)piperazine-1-carboxamide] registered an IC50 under setting [1] of 1340 nM.
`Cn1cc(-c2cc(-c3ccc(N4CCN(C(=O)N5CC6COCC6C5)CC4)nc3)c3c(C#N)cnn3c2)cn1` (stereo not drawn) [Example 123, 4-(6-(4-(hexahydro-1H-furo[3,4-c]pyrrole-5-carbonyl)piperazin-1-yl)pyridin-3-yl)-6-(1-methyl-1H-pyrazol-4-yl)pyrazolo[1,5-a]pyridine-3-carbonitrile] returned an IC50 under setting [1] of 1610 nM.
Regarding `Cn1cc(-c2cc(-c3ccc(N4CCN(C(=O)N5CCCC5(C)C)CC4)nc3)c3c(C#N)cnn3c2)cn1` [Example 124, 4-(6-(4-(2,2-dimethylpyrrolidine-1-carbonyl)piperazin-1-yl)pyridin-3-yl)-6-(1-methyl-1H-pyrazol-4-yl)pyrazolo[1,5-a]pyridine-3-carbonitrile], the IC50 under setting [1] was 1860 nM.
Same read-out and setting: with `Cn1cc(-c2cc(-c3ccc(N4CCN(C(=O)N5CCCC5)CC4)nc3)c3c(C#N)cnn3c2)cn1` [Example 125, 6-(1-methyl-1H-pyrazol-4-yl)-4-(6-(4-(pyrrolidine-1-carbonyl)piperazin-1-yl)pyridin-3-yl)pyrazolo[1,5-a]pyridine-3-carbonitrile] the figure was 616 nM; with `Cn1cc(-c2cc(-c3ccc(N4CCN(C(=O)NCc5ccccc5)CC4)nc3)c3c(C#N)cnn3c2)cn1` [Example 129, N-benzyl-4-(5-(3-cyano-6-(1-methyl-1H-pyrazol-4-yl)pyrazolo[1,5-a]pyridin-4-yl)pyridin-2-yl)piperazine-1-carboxamide], 93.5 nM.
With `Cn1cc(-c2cc(-c3ccc(N4CCN(C(=O)NC5CC5)CC4)nc3)c3c(C#N)cnn3c2)cn1` [Example 131, 4-(5-(3-cyano-6-(1-methyl-1H-pyrazol-4-yl)pyrazolo[1,5-a]pyridin-4-yl)pyridin-2-yl)-N-cyclopropylpiperazine-1-carboxamide 2,2,2-trifluoroacetate], half-maximal inhibition under setting [1] (IC50) was put at 447 nM.
Under setting [1], `CN(C)C(=O)N1CCN(c2ccc(-c3cc(-c4cnn(C)c4)cn4ncc(C#N)c34)cn2)CC1` [Example 132, 4-(5-(3-cyano-6-(1-methyl-1H-pyrazol-4-yl)pyrazolo[1,5-a]pyridin-4-yl)pyridin-2-yl)-N,N-dimethylpiperazine-1-carboxamide] gave an IC50 of 1150 nM.
Under setting [1], `Cn1cc(-c2cc(-c3ccc(N4CCN(S(=O)(=O)N5CCCC5)CC4)nc3)c3c(C#N)cnn3c2)cn1` [Example 138, 6-(1-methyl-1H-pyrazol-4-yl)-4-(6-(4-(pyrrolidin-1-ylsulfonyl)piperazin-1-yl)pyridin-3-yl)pyrazolo[1,5-a]pyridine-3-carbonitrile] came in with an IC50 of 16.1 nM.
Under setting [1], `Cn1cc(-c2cc(-c3ccc(N4CCN(Cc5ccccc5)CC4)nc3)c3c(C#N)cnn3c2)cn1` [Example 139, 4-(6-(4-benzylpiperazin-1-yl)pyridin-3-yl)-6-(1-methyl-1H-pyrazol-4-yl)pyrazolo[1,5-a]pyridine-3-carbonitrile] returned an IC50 of 289 nM.
`Cn1cc(-c2cc(-c3ccc(N4CCN(CCc5ccc(Cl)cc5)CC4)nc3)c3c(C#N)cnn3c2)cn1` [Example 140, 4-(6-(4-(4-chlorophenethyl)piperazin-1-yl)pyridin-3-yl)-6-(1-methyl-1H-pyrazol-4-yl)pyrazolo[1,5-a]pyridine-3-carbonitrile] yielded an IC50 under setting [1] of 712 nM.
Compound `Cn1cc(-c2cc(-c3ccc(N4CCN(CC(=O)N5CCCC5)CC4)nc3)c3c(C#N)cnn3c2)cn1` [Example 145, 6-(1-methyl-1H-pyrazol-4-yl)-4-(6-(4-(2-oxo-2-(pyrrolidin-1-yl)ethyl)piperazin-1-yl)pyridin-3-yl)pyrazolo[1,5-a]pyridine-3-carbonitrile 2,2,2-trifluoroacetate] showed an IC50 under setting [1] of 682 nM.
On to `C[C@H]([C@H](O)c1ccccc1)N1CCN(c2ccc(-c3cc(-c4cnn(C)c4)cn4ncc(C#N)c34)cn2)CC1` [Example 147, 4-(6-(4-((1R,2R)-1-hydroxy-1-phenylpropan-2-yl)piperazin-1-yl)pyridin-3-yl)-6-(1-methyl-1H-pyrazol-4-yl)pyrazolo[1,5-a]pyridine-3-carbonitrile], for which the IC50 under setting [1] is 1290 nM.
Under setting [1], `C[C@@H]([C@@H](O)c1ccccc1)N1CCN(c2ccc(-c3cc(-c4cnn(C)c4)cn4ncc(C#N)c34)cn2)CC1` [Example 149, 4-(6-(4-((1S,2S)-1-hydroxy-1-phenylpropan-2-yl)piperazin-1-yl)pyridin-3-yl)-6-(1-methyl-1H-pyrazol-4-yl)pyrazolo[1,5-a]pyridine-3-carbonitrile] showed an IC50 of 563 nM.
For the compound `CC[C@H](O)CN1CCN(c2ccc(-c3cc(-c4cnn(C)c4)cn4ncc(C#N)c34)cn2)CC1` [Example 150, (S)-4-(6-(4-(2-hydroxybutyl)piperazin-1-yl)pyridin-3-yl)-6-(1-methyl-1H-pyrazol-4-yl)pyrazolo[1,5-a]pyridine-3-carbonitrile], half-maximal inhibition (pKDR Cell HEK 10% FBS IC50) (IC50) was put at 728 nM.
`Cn1cc(-c2cc(-c3ccc(N4CCN(CC(O)c5ccc(Cl)cc5)CC4)nc3)c3c(C#N)cnn3c2)cn1` (stereo not drawn) [Example 152, 4-(6-(4-(2-(4-chlorophenyl)-2-hydroxyethyl)piperazin-1-yl)pyridin-3-yl)-6-(1-methyl-1H-pyrazol-4-yl)pyrazolo[1,5-a]pyridine-3-carbonitrile] came in with an IC50 under setting [1] of 207 nM.
The compound `Cn1cc(-c2cc(-c3ccc(N4CCN(C[C@H](O)c5cccc(Cl)c5)CC4)nc3)c3c(C#N)cnn3c2)cn1` [Example 153, (R)-4-(6-(4-(2-(3-chlorophenyl)-2-hydroxyethyl)piperazin-1-yl)pyridin-3-yl)-6-(1-methyl-1H-pyrazol-4-yl)pyrazolo[1,5-a]pyridine-3-carbonitrile] had an IC50 under setting [1] of 164 nM.
On to `Cn1cc(-c2cc(-c3ccc(N4CCN(CC(O)c5c(F)cccc5F)CC4)nc3)c3c(C#N)cnn3c2)cn1` (stereo not drawn) [Example 154, 4-(6-(4-(2-(2,6-difluorophenyl)-2-hydroxyethyl)piperazin-1-yl)pyridin-3-yl)-6-(1-methyl-1H-pyrazol-4-yl)pyrazolo[1,5-a]pyridine-3-carbonitrile], for which, under setting [1], the half-inhibitory concentration (IC50) was determined as 155 nM.
Turning to `Cn1cc(-c2cc(-c3ccc(N4CCN([C@@H]5CCCC[C@H]5O)CC4)nc3)c3c(C#N)cnn3c2)cn1` [Example 155, 4-(6-(4-((1r,2r)-2-hydroxycyclohexyl)piperazin-1-yl)pyridin-3-yl)-6-(1-methyl-1H-pyrazol-4-yl)pyrazolo[1,5-a]pyridine-3-carbonitrile], the IC50 under setting [1] amounted to 979 nM.
For the compound `Cn1cc(-c2cc(-c3ccc(N4CCN(CC(C)(C)O)CC4)nc3)c3c(C#N)cnn3c2)cn1` [Example 156, 4-(6-(4-(2-hydroxy-2-methylpropyl)piperazin-1-yl)pyridin-3-yl)-6-(1-methyl-1H-pyrazol-4-yl)pyrazolo[1,5-a]pyridine-3-carbonitrile], the midpoint of inhibition under setting [1], the IC50, lay at 1760 nM.
Under setting [1], `Cn1cc(-c2cc(-c3ccc(N4CCN([C@@H]5COC[C@H]5O)CC4)nc3)c3c(C#N)cnn3c2)cn1` [Example 159, 4-(6-(4-((3r,4s)-4-hydroxytetrahydrofuran-3-yl)piperazin-1-yl)pyridin-3-yl)-6-(1-methyl-1H-pyrazol-4-yl)pyrazolo[1,5-a]pyridine-3-carbonitrile] returned an IC50 of 1300 nM.
Still for that read-out and setting: the same measure for `Cn1cc(-c2cc(-c3ccc(N4CCN(C[C@H](O)c5ccccc5)CC4)nc3)c3c(C#N)cnn3c2)cn1` [Example 161, (R)-4-(6-(4-(2-hydroxy-2-phenylethyl)piperazin-1-yl)pyridin-3-yl)-6-(1-methyl-1H-pyrazol-4-yl)pyrazolo[1,5-a]pyridine-3-carbonitrile]: 48.5 nM.
